Assay results as given in PubChem BioAssay (NCI).
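Each compound was tested at five concentrations against cells in 96-well plates for 48 hours. The concentration for full growth arrest is given as TGI.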

Tests used:
Assay in all cases: NCI anticancer screen, dose series, 48 h
MCF7 breast = system: MCF7 breast
CAKI-1 renal = system: CAKI-1 renal
786-0 renal = system: 786-0 renal
HT29 colon = system: HT29 colon
DU-145 prostate = system: DU-145 prostate
HCC-2998 colon = system: HCC-2998 colon
SR leukemia = system: SR leukemia
UACC-257 melanoma = system: UACC-257 melanoma
KM12 colon = system: KM12 colon
HCT-116 colon = system: HCT-116 colon
HOP-62 NSCLC = system: HOP-62 NSCLC
NCI-H23 lung = system: NCI-H23 lung
NCI-H460 lung = system: NCI-H460 lung
SK-MEL-2 melanoma = system: SK-MEL-2 melanoma
UACC-62 melanoma = system: UACC-62 melanoma
MDA-MB-435 = system: MDA-MB-435
MALME-3M melanoma = system: MALME-3M melanoma
HS 578T breast = system: HS 578T breast
OVCAR-8 ovarian = system: OVCAR-8 ovarian
RPMI-8226 leukemia = system: RPMI-8226 leukemia
SNB-19 CNS = system: SNB-19 CNS
NCI-H522 lung = system: NCI-H522 lung
EKVX NSCLC = system: EKVX NSCLC
SK-MEL-5 melanoma = system: SK-MEL-5 melanoma
MDA-N = system: MDA-N
IGROV1 ovarian = system: IGROV1 ovarian
HCT-15 colon = system: HCT-15 colon
SF-539 CNS = system: SF-539 CNS
TK-10 renal = system: TK-10 renal
MDA-MB-231 breast = system: MDA-MB-231 breast
HL-60(TB) leukemia = system: HL-60(TB) leukemia
LOX IMVI melanoma = system: LOX IMVI melanoma
M14 melanoma = system: M14 melanoma
OVCAR-4 ovarian = system: OVCAR-4 ovarian
SF-268 CNS = system: SF-268 CNS
SW-620 colon = system: SW-620 colon
COLO 205 colon = system: COLO 205 colon
SF-295 CNS = system: SF-295 CNS
K-562 leukemia = system: K-562 leukemia
T-47D breast = system: T-47D breast
SN12C renal = system: SN12C renal
U251 CNS = system: U251 CNS
NCI/ADR-RES ovarian = system: NCI/ADR-RES ovarian
BT-549 breast = system: BT-549 breast
ACHN renal = system: ACHN renal
A549 NSCLC = system: A549 NSCLC
SK-MEL-28 melanoma = system: SK-MEL-28 melanoma
NCI-H226 lung = system: NCI-H226 lung
CCRF-CEM leukemia = system: CCRF-CEM leukemia
OVCAR-3 ovarian = system: OVCAR-3 ovarian
UO-31 renal = system: UO-31 renal
MOLT-4 leukemia = system: MOLT-4 leukemia
PC-3 prostate = system: PC-3 prostate
OVCAR-5 ovarian = system: OVCAR-5 ovarian
RXF 393 renal = system: RXF 393 renal
A498 renal = system: A498 renal
HOP-92 NSCLC = system: HOP-92 NSCLC
SK-OV-3 ovarian = system: SK-OV-3 ovarian
SNB-75 CNS = system: SNB-75 CNS

Measured: TGI

CN1C(=O)CC2CCC(=O)N2c2cccnc21 (configuration not stated)
> 100 µM: MCF7 breast | CAKI-1 renal | 786-0 renal | HT29 colon | DU-145 prostate | HCC-2998 colon | SR leukemia | UACC-257 melanoma | KM12 colon | HCT-116 colon | HOP-62 NSCLC | NCI-H23 lung | NCI-H460 lung | SK-MEL-2 melanoma | UACC-62 melanoma | MDA-MB-435 | MALME-3M melanoma | HS 578T breast | OVCAR-8 ovarian | RPMI-8226 leukemia | SNB-19 CNS | NCI-H522 lung | EKVX NSCLC | SK-MEL-5 melanoma | MDA-N | IGROV1 ovarian | HCT-15 colon | SF-539 CNS | TK-10 renal | MDA-MB-231 breast | HL-60(TB) leukemia | LOX IMVI melanoma | M14 melanoma | OVCAR-4 ovarian | SF-268 CNS | SW-620 colon | COLO 205 colon | SF-295 CNS | K-562 leukemia | T-47D breast | SN12C renal | U251 CNS | NCI/ADR-RES ovarian | BT-549 breast | ACHN renal | A549 NSCLC | SK-MEL-28 melanoma | NCI-H226 lung | CCRF-CEM leukemia | OVCAR-3 ovarian | UO-31 renal

Cc1cc(O)c(/C=N/C(=S)Nc2ccccc2)c(=O)o1
> 100 µM: MCF7 breast | CAKI-1 renal | 786-0 renal | HT29 colon | DU-145 prostate | MOLT-4 leukemia | HCC-2998 colon | UACC-257 melanoma | KM12 colon | HCT-116 colon | PC-3 prostate | HOP-62 NSCLC | NCI-H23 lung | NCI-H460 lung | SK-MEL-2 melanoma | UACC-62 melanoma | MDA-MB-435 | OVCAR-5 ovarian | RXF 393 renal | HS 578T breast | OVCAR-8 ovarian | RPMI-8226 leukemia | SNB-19 CNS | NCI-H522 lung | EKVX NSCLC | SK-MEL-5 melanoma | A498 renal | MDA-N | IGROV1 ovarian | HOP-92 NSCLC | HCT-15 colon | SF-539 CNS | TK-10 renal | MDA-MB-231 breast | HL-60(TB) leukemia | LOX IMVI melanoma | M14 melanoma | OVCAR-4 ovarian | SF-268 CNS | SW-620 colon | COLO 205 colon | SK-OV-3 ovarian | SF-295 CNS | SNB-75 CNS | K-562 leukemia | T-47D breast | SN12C renal | U251 CNS | NCI/ADR-RES ovarian | BT-549 breast | ACHN renal | A549 NSCLC | NCI-H226 lung | CCRF-CEM leukemia | OVCAR-3 ovarian | UO-31 renal
